# Reference: patent publication US7759345B2, “Antitumoral derivatives of ET-743” (priority 2001, dated 2010)
# Legend:
# Format in all cases: cell-based
# Settings in all cases: SRB, 48 hours exposure
# A-549 = experiment: Inhibition of cells growth by colorimetric assay (SRB), A-549
# Method in brief: (§1)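 Cells in RPMI 1640 with 10% FBS were seeded at 5×10^3 per well, allowed 18 h to attach, then exposed to compound (10 to 10^−8 μg/ml, in DMSO/EtOH/PBS 0.5:0.5:99) for 48 h. After TCA fixation and SRB staining, bound dye was solubilized in Tris and OD read at 490 nm; GI, TGI and LC derived from triplicates.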
# SK-BR-3 = experiment: Inhibition of cells growth by colorimetric assay (SRB), SK-BR-3
# Protocol: (§2) 2°.—Inhibition of Cells Growth by Colorimetric Assay.
# (§3) A colorimetric type of assay, using sulforhodamine B (SRB) reaction has been adapted for a quantitative measurement of cell growth and viability [following the technique described by Philip Skehan, et al. (1990), New colorimetric cytotoxicity assay for anticancer drug screening, J. Natl. Cancer Inst., 82:1107-1112]
# (§4) This form of the assay employs 96 well cell culture microplates of 9 mm diameter (Faircloth, 1988; Mosmann, 1983). Most of the cell lines are obtained from American Type Culture Collection (ATCC) derived from different human cancer types.
# (§5) Cells are maintained in RPMI 1640 10% FBS, supplemented with 0.1 g/l penicillin and 0.1 g/l streptomycin sulfate and then incubated at 37° C., 5% CO2 and 98% humidity. For the experiments, cells were harvested from subconfluent cultures using trypsin and resuspended in fresh medium before plating.
# (§6) Cells are seeded in 96 well microtiter plates, at 5×10^3 cells per well in aliquots of 195 μl medium, and they are allowed to attach to the plate surface by growing in drug free medium for 18 hours. Afterward, samples are added in aliquots of 5 μl in a ranging from 10 to 10^−8 μg/ml, dissolved in DMSO/EtOH/PBS (0.5:0.5:99). After 48 hours exposure, the antitumor effect are measured by the SRB methodology: cells are fixed by adding 50 μl of cold 50% (wt/vol) trichloroacetic acid (TCA) and incubating for 60 minutes at 4° C. Plates are washed with deionized water and dried. One hundred μl of SRB solution (0.4% wt/vol in 1% acetic acid) is added to each microtiter well and incubated for 10 minutes at room temperature. Unbound SRB is removed by washing with 1% acetic acid. Plates are air dried and bound stain is solubilized with Tris buffer. Optical densities are read on a automated spectrophotometric plate reader at a single wavelength of 490 nm.
# (§7) The values for mean+/−SD of data from triplicate wells are calculated. Some parameters for cellular responses can be calculated: GI=growth inhibition, TGI=total growth inhibition (cytostatic effect) and LC=cell killing (cytotoxic effect).
# (§8) Obtained results may predict the usefulness of a certain drug as a potential cancer treatment. For this technique, compounds which show GI50 values smaller than 10 μg/ml are selected to continue with further studies. GI50's data allow to predict that not only could a drug be cystostatic, but also it could have a potential in terms of tumor reduction.
# DU-145 = experiment: Inhibition of cells growth by colorimetric assay (SRB), DU-145
# Protocol: as §2, §3, §4, §5, §6, §7, §8
# LNCaP = experiment: Inhibition of cells growth by colorimetric assay (SRB), LNCaP
# Protocol: as §2, §3, §4, §5, §6, §7, §8
# SK-OV-3 = experiment: Inhibition of cells growth by colorimetric assay (SRB), SK-OV-3
# Protocol: as §2, §3, §4, §5, §6, §7, §8
# HMEC1 = experiment: Inhibition of cells growth by colorimetric assay (SRB), HMEC1
# Protocol: as §2, §3, §4, §5, §6, §7, §8
# LoVo = experiment: Inhibition of cells growth by colorimetric assay (SRB), LoVo
# Protocol: as §2, §3, §4, §5, §6, §7, §8
# LoVo-Dox = experiment: Inhibition of cells growth by colorimetric assay (SRB), LoVo-Dox
# Protocol: as §2, §3, §4, §5, §6, §7, §8
# K-562 = experiment: Inhibition of cells growth by colorimetric assay (SRB), K-562
# Protocol: as §2, §3, §4, §5, §6, §7, §8
# PANC-1 = experiment: Inhibition of cells growth by colorimetric assay (SRB), PANC-1
# Protocol: as §2, §3, §4, §5, §6, §7, §8
# SK-MEL-28 = experiment: Inhibition of cells growth by colorimetric assay (SRB), SK-MEL-28
# Protocol: as §2, §3, §4, §5, §6, §7, §8
# IGROV-1 = experiment: Inhibition of cells growth by colorimetric assay (SRB), IGROV-1
# Protocol: as §2, §3, §4, §5, §6, §7, §8
# HT-29 = experiment: Inhibition of cells growth by colorimetric assay (SRB), HT-29
# Method in brief: as §1
# IGROV-ET = experiment: Inhibition of cells growth by colorimetric assay (SRB), IGROV-ET
# Protocol: as §2, §3, §4, §5, §6, §7, §8
smiles,measurement,setting,value
C=COC(=O)N1CCc2cc(O)c(OC)cc2[C@@]12CS[C@@H]1c3c(OC(C)=O)c(C)c4c(c3[C@H](COC2=O)N2C1[C@H]1c3c(cc(C)c(OC)c3O)C[C@@H]([C@@H]2O)N1C)OCO4 (stereo partly drawn) [Compound 95],A-549 TGI,A-549; A-549,5.55E-08
same,GI50,"A-549; Homo sapiens, A549, 48 h, A-549, read-out: A-549 GI50",26.8 nM
same,LC50 (concentration for 50% cell killing),"A-549; Homo sapiens, A549, 48 h, read-out: A-549 LC50, A-549",147 nM
same,GI50,"SK-BR-3; Homo sapiens, SK-BR-3, 48 h, SK-BR3, read-out: SK-BR3 GI50",29.8 nM
same,CC50,"SK-BR-3; Homo sapiens, SK-BR-3, 48 h, read-out: SK-BR3 LC50, SK-BR3",522 nM
same,SK-BR3 TGI,SK-BR-3; SK-BR3,7.62E-08
same,DU-145 TGI,DU-145; DU-145,8.92E-08
same,GI50,"DU-145; Homo sapiens, DU-145, 48 h, DU-145, read-out: DU-145 GI50",37.6 nM
same,CC50,"DU-145; Homo sapiens, DU-145, 48 h, read-out: DU-145 LC50, DU-145",1010 nM
same,GI50,"LNCaP; Homo sapiens, LNCaP, 48 h, read-out: LNCAP GI50, LNCAP",17.7 nM
same,CC50,"LNCaP; Homo sapiens, LNCaP, 48 h, read-out: LNCAP LC50, LNCAP",66 nM
same,LNCAP TGI,LNCaP; LNCAP,3.41E-08
same,GI50,"SK-OV-3; Homo sapiens, SK-OV-3, 48 h, SK-OV3, read-out: SK-OV3 GI50",28.1 nM
same,LC50,"SK-OV-3; Homo sapiens, SK-OV-3, 48 h, read-out: SK-OV3 LC50, SK-OV3",368 nM
same,SK-OV3 TGI,SK-OV-3; SK-OV3,6.59E-08
same,HMEC-1 TGI,HMEC1; HMEC-1,2.80E-08
same,GI50,"HMEC1; Homo sapiens, HMEC-1, 48 h, HMEC-1, read-out: HMEC-1 GI50",9.36 nM
same,LC50,"HMEC1; Homo sapiens, HMEC-1, 48 h, read-out: HMEC-1 LC50, HMEC-1",75.6 nM
same,GI50,"LoVo; Homo sapiens, LoVo, 48 h, LOVO, read-out: LOVO GI50",26.2 nM
same,LC50 (concentration for 50% cell killing),"LoVo; Homo sapiens, LoVo, 48 h, read-out: LOVO LC50, LOVO",111 nM
same,LOVO TGI,LoVo; LOVO,5.40E-08
same,GI50,"LoVo-Dox; Homo sapiens, 48 h, LOVO-DOX, read-out: LOVO-DOX GI50",240 nM
same,CC50,"LoVo-Dox; Homo sapiens, 48 h, read-out: LOVO-DOX LC50, LOVO-DOX",12000 nM
same,LOVO-DOX TGI,LoVo-Dox; LOVO-DOX,8.68E-07
same,GI50,"K-562; Homo sapiens, K562, 48 h, K-562, read-out: K-562 GI50",15.3 nM
same,LC50 (50% cell killing),"K-562; Homo sapiens, K562, 48 h, read-out: K-562 LC50, K-562",2220 nM
same,K-562 TGI,K-562; K-562,5.30E-08
same,GI50,"PANC-1; Homo sapiens, PANC-1, 48 h, PANC-1, read-out: PANC-1 GI50",38.8 nM
same,LC50 (concentration for 50% net cell kill),"PANC-1; Homo sapiens, PANC-1, 48 h, read-out: PANC-1 LC50, PANC-1",1090 nM
same,PANC-1 TGI,PANC-1; PANC-1,1.08E-07
same,GI50,"SK-MEL-28; Homo sapiens, SK-MEL-28, 48 h, MEL-28, read-out: MEL-28 GI50",25.2 nM
same,CC50,"SK-MEL-28; Homo sapiens, SK-MEL-28, 48 h, read-out: MEL-28 LC50, MEL-28",83.2 nM
same,MEL-28 TGI,SK-MEL-28; MEL-28,4.58E-08
same,GI50,"IGROV-1; Homo sapiens, IGROV-1, 48 h, IGROV, read-out: IGROV GI50",28 nM
same,CC50,"IGROV-1; Homo sapiens, IGROV-1, 48 h, read-out: IGROV LC50, IGROV",1090 nM
same,IGROV TGI,IGROV-1; IGROV,6.67E-08
same,HT-29 TGI,HT-29; HT-29,1.27E-07
same,GI50,"HT-29; Homo sapiens, HT-29, 48 h, HT-29, read-out: HT-29 GI50",40.4 nM
same,LC50 (concentration for 50% cell killing),"HT-29; Homo sapiens, HT-29, 48 h, read-out: HT-29 LC50, HT-29",12000 nM
same,GI50,"IGROV-ET; Homo sapiens, 48 h, IGROV-ET, read-out: IGROV-ET GI50",50.5 nM
same,CC50,"IGROV-ET; Homo sapiens, 48 h, read-out: IGROV-ET LC50, IGROV-ET",12000 nM
same,IGROV-ET TGI,IGROV-ET; IGROV-ET,1.16E-07
